One assay has as its system GFP(3TAG). The assay is classed as cell-based, E. coli. Conditions: plasmid-based pAcF OTS in the GRO. The procedure: (§1) Liquid cell cultures of strains harboring chromosomally integrated OTSs and GFP reporter plasmids were inoculated from frozen stocks and grown to confluence overnight. Cultures were then inoculated at 1:20 dilution in LBmin media supplemented with 30 μg/ml kanamycin. Strains were inoculated by addition of 1:20 confluent cell culture (grown overnight) and allowed to grow at 34° C. to an OD600 of 0.5-0.8 in a shaking plate incubator at 650 r.p.m (˜3 h). AARS expression was then induced by the addition of 0.2% arabinose, GFP expression was induced by the addition of 60 ng/ul anhydrotetracycline, and the appropriate nsAA was added to a concentration of 1 mM. Cells were incubated at 34° C. for an additional 16 h. Liquid cell cultures of strains harboring plasmid-based OTSs and GFP or ELP-GFP reporter plasmids were inoculated from frozen stocks and grown to confluence overnight. Cultures were then inoculated at 1:20 dilution in 2×YT media supplemented with 30 μg/ml kanamycin and 20 μg/ml chloramphenicol. […] Cells were allowed to grow at 34° C. to an OD600 of 0.5-0.8 in a shaking plate incubator at 650 r.p.m (˜3 h), reporter protein expression was then induced by the addition of 60 ng/ul anhydrotetracycline, and cells were incubated at 34° C. for an additional 16 h.
(§2) For 384 well plate-based assays, fluorescence and OD600 were directly measured following expression. For 96 well plate-based assays, cells were centrifuged at 4,000 g for 4 min. Supernatant medium was removed and cells were resuspended in PBS. This process was repeated twice with PBS. GFP fluorescence was measured on a Biotek spectrophotometric plate reader using excitation and emission wavelengths of 395 and 509 nm, respectively). Fluorescence signals were normalized by dividing the fluorescence counts by the OD600 reading. The nsAAs used in this study were purchased from Sigma-Aldrich (St. Louis, Mo.), Chemlmpex (Wood Dale, Ill.), and Bachem (Torrance, Calif.). Solutions of nsAAs (50 mM) were made in water or 50 mM NaOH; these stock solutions were diluted 50- or 100-fold (to 1 mM final concentration) into medium used for bacterial growth.

The next assay relates to ELP(10TAG)-GFP. Nature of the assay: Intact cell GFP fluorescence, ELP(10TAG)-GFP production. The following applies: plasmid-based pAcF OTS in the GRO. Also noted: species or system E. coli. As to the method: Liquid cell cultures of strains harboring chromosomally integrated OTSs and GFP reporter plasmids were inoculated from frozen stocks and grown to confluence overnight. Cultures were then inoculated at 1:20 dilution in LBmin media supplemented with 30 μg/ml kanamycin. Strains were inoculated by addition of 1:20 confluent cell culture (grown overnight) and allowed to grow at 34° C. to an OD600 of 0.5-0.8 in a shaking plate incubator at 650 r.p.m (˜3 h). AARS expression was then induced by the addition of 0.2% arabinose, GFP expression was induced by the addition of 60 ng/ul anhydrotetracycline, and the appropriate nsAA was added to a concentration of 1 mM. Cells were incubated at 34° C. for an additional 16 h. Liquid cell cultures of strains harboring plasmid-based OTSs and GFP or ELP-GFP reporter plasmids were inoculated from frozen stocks and grown to confluence overnight. Cultures were then inoculated at 1:20 dilution in 2×YT media supplemented with 30 μg/ml kanamycin and 20 μg/ml chloramphenicol. […]
For 384 well plate-based assays, fluorescence and OD600 were directly measured following expression. […] GFP fluorescence was measured on a Biotek spectrophotometric plate reader using excitation and emission wavelengths of 395 and 509 nm, respectively). Fluorescence signals were normalized by dividing the fluorescence counts by the OD600 reading. […]

Assay [1] deals with ELP(30TAG)-GFP. Put plainly: Intact cell GFP fluorescence, ELP(30TAG)-GFP production. The assay is classed as cell-based, E. coli. The following applies: plasmid-based pAcF OTS in the GRO. The procedure:
as §1, §2

Assay [2] deals with ELP(30TAG)-GFP. Put plainly: ELP expression and purification, yield of purified ELP(30TAG)-GFP. The assay is classed as cell-based, E. coli. Conditions: for yield of purified ELP(30TAG)-GFP compared to expression of WT protein: small batch cultures. As to the method:
Before batch expression, starter cultures (2 mL) of 2×YT media supplemented with 30 μg/mL kanamayacin and 20 μg/mL chloramphenicol were inoculated with transformed cells from a fresh agar plate or from stocks stored at −80° C., and incubated overnight at 34° C. while shaking at 250 rpm. Expression cultures (250 ml flasks containing 50 ml of 2×YT media, antibiotics, 0.2% arabinose and 1 mM of the nsAA) were inoculated with 0.5 ml of the starter culture and incubated at 34° C. for 4 h and then reporter protein expression was induced with 60 μg/mL anhydrotetracyclin.
Cells were harvested 24 h after inoculation by centrifugation at 4,000 g for 15 min at 4° C. The cell pellet was resuspended by vortex in ˜1.5 mL PBS buffer and stored at −80° C. or immediately purified. For purification, resuspended pellets were lysed by ultrasonic disruption (9 cycles of 10 s sonication separated by 40 s intervals). Poly(ethyleneimine) (0.2 mL of 10% solution) was added to each lysed suspension before centrifugation at 15,000 g for 3 min to separate cell debris from the soluble cell lysate.
All ELP constructs were purified by a modified Inverse Transition Cycling (ITC) protocol consisting of multiple “hot” and “cold” spins using sodium citrate to trigger the phase transition. Before purification, the soluble cell lysate was incubated for 1-2 min at ˜65° C. to denature native E. coli proteins. For “hot” spins, the ELP phase transition was triggered by adding sodium citrate to the cell lysate or the product of a previous cycle of ITC at a final concentration of ˜0.5 M. The solutions were then centrifuged at 14,000 g for 3 min and the pellets were resuspended in PBS, followed by a 3-5 min “cold” spin performed without addition of sodium citrate to remove denatured contaminant. Additional rounds of ITC were carried out as needed until sufficient purification was achieved.
Protein concentration was calculated by measuring the OD280 of purified protein stocks according to the following extinction coefficients for ELP(30TAG)-GFP.

In the next assay the target is BSA (Bos taurus, UniProt P02769). Put plainly: Binding to BSA coated agarose beads, GFP fluorescence. The following applies: palmitic acid conjugated; 30 vs. 1 pAzF instances. An excerpt:
When supplied with insufficient amounts of alkyne (a ratio of 0.125, 0.25 and 0.5 alkyne:azide), a partial shift was observed as well as a “smear” of the protein band that signifies stochastic reaction of less than 30 sites. In contrast, when sufficient alkyne was supplied, a sharp band is apparent with a consistent size shift compared with the unreacted control. Next, ELP-GFP containing either 30 azide groups or a single azide group and 30 tyrosine groups were contacted with BSA coated agarose beads. The beads were subsequently washed and the amount of protein bound to the beads was measured via GFP fluorescence. The results are illustrated in FIG. 11.

Non-standard residues stand in square brackets, D forms with d. Phe(4-N3) = [N-]=[N+]=Nc1ccc(C[C@H](N)C(=O)O)cc1

BSA, sequence (P02769 25-607): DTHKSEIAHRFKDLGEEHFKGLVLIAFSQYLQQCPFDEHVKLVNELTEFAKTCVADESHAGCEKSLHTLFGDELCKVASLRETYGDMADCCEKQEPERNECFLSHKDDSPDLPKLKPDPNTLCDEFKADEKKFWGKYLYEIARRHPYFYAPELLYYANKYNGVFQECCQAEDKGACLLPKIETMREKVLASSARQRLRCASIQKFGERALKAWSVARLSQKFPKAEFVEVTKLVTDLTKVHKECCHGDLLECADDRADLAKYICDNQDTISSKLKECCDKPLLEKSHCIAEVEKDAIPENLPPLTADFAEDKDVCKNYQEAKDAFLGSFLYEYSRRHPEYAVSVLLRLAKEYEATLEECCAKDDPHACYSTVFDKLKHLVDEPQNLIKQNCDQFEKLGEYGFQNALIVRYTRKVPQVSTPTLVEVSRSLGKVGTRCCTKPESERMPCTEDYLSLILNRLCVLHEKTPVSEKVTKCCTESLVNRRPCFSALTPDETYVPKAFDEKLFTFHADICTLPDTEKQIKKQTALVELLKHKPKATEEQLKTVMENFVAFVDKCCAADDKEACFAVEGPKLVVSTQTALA

Consider `CC(=O)c1ccc(C[C@H](N)C(=O)O)cc1` [pAcF, p-acetyl-L-phenylalanine, reference compound], for which the “GFP(3TAG) fluorescence compared to WT-protein” value with GFP(3TAG) worked out at 110%. The “ELP(10TAG)-GFP fluorescence compared to WT-protein” value with ELP(10TAG)-GFP is 87%. Besides, the “ELP(30TAG)-GFP fluorescence compared to WT-protein” value in the assay on ELP(30TAG)-GFP [1] came out at 25%. In addition, the figures for the “yield of purified ELP(30TAG)-GFP compared to expression of WT protein” value with ELP(30TAG)-GFP [2] (GRO) and in the assay on ELP(30TAG)-GFP [2] (parent (non-recoded) strain) were 18% and 8%, respectively.
`[N-]=[N+]=Nc1ccc(C[C@H](N)C(=O)O)cc1` [pAzF, p-azido-L-phenylalanine, reference compound]: the “GFP(3TAG) fluorescence compared to WT-protein” value in the assay with GFP(3TAG) was found to be 75%. The “ELP(10TAG)-GFP fluorescence compared to WT-protein” value with ELP(10TAG)-GFP came out at 32%. In the assay with ELP(30TAG)-GFP [1], the “ELP(30TAG)-GFP fluorescence compared to WT-protein” value worked out at 6%. In the assay on ELP(30TAG)-GFP [2] (nsAA pAzF, GRO), the “Yield of purified ELP(30TAG)-GFP” value is on record as “too low to allow for purification”.

B1: ELPs containing 30 pAzF nsAAs: ELP(30TAG)-GFP with 30 pAzF conjugated by click reaction to palmitic acid-alkyne (conjugate)
chain: SKGPGVPGGGVPGAGVPG[Phe(4-N3)](palmitic acid‑alkyne)GVPGGGVPGAGVPG[Phe(4-N3)](palmitic acid‑alkyne)GVPGGGVPGAGVPG[Phe(4-N3)](palmitic acid‑alkyne)GVPGGGVPGAGVPG[Phe(4-N3)](palmitic acid‑alkyne)GVPGGGVPGAGVPG[Phe(4-N3)](palmitic acid‑alkyne)GVPGGGVPGAGVPG[Phe(4-N3)](palmitic acid‑alkyne)GVPGGGVPGAGVPG[Phe(4-N3)](palmitic acid‑alkyne)GVPGGGVPGAGVPG[Phe(4-N3)](palmitic acid‑alkyne)GVPGGGVPGAGVPG[Phe(4-N3)](palmitic acid‑alkyne)GVPGGGVPGAGVPG[Phe(4-N3)](palmitic acid‑alkyne)GVPGGGVPGAGVPG[Phe(4-N3)](palmitic acid‑alkyne)GVPGGGVPGAGVPG[Phe(4-N3)](palmitic acid‑alkyne)GVPGGGVPGAGVPG[Phe(4-N3)](palmitic acid‑alkyne)GVPGGGVPGAGVPG[Phe(4-N3)](palmitic acid‑alkyne)GVPGGGVPGAGVPG[Phe(4-N3)](palmitic acid‑alkyne)GVPGGGVPGAGVPG[Phe(4-N3)](palmitic acid‑alkyne)GVPGGGVPGAGVPG[Phe(4-N3)](palmitic acid‑alkyne)GVPGGGVPGAGVPG[Phe(4-N3)](palmitic acid‑alkyne)GVPGGGVPGAGVPG[Phe(4-N3)](palmitic acid‑alkyne)GVPGGGVPGAGVPG[Phe(4-N3)](palmitic acid‑alkyne)GVPGGGVPGAGVPG[Phe(4-N3)](palmitic acid‑alkyne)GVPGGGVPGAGVPG[Phe(4-N3)](palmitic acid‑alkyne)GVPGGGVPGAGVPG[Phe(4-N3)](palmitic acid‑alkyne)GVPGGGVPGAGVPG[Phe(4-N3)](palmitic acid‑alkyne)GVPGGGVPGAGVPG[Phe(4-N3)](palmitic acid‑alkyne)GVPGGGVPGAGVPG[Phe(4-N3)](palmitic acid‑alkyne)GVPGGGVPGAGVPG[Phe(4-N3)](palmitic acid‑alkyne)GVPGGGVPGAGVPG[Phe(4-N3)](palmitic acid‑alkyne)GVPGGGVPGAGVPG[Phe(4-N3)](palmitic acid‑alkyne)GVPGGGVPGAGVPG[Phe(4-N3)](palmitic acid‑alkyne)GPGGGG-{GFP}
modifications: also: conjugated by click reaction
notes: ELP(30TAG)-GFP with 30 pAzF conjugated by click reaction to palmitic acid-alkyne
B1: the BSA binding result with BSA is reported as “improved BSA binding”.

The values above are taken from US10501734B2, “Compositions and methods of use thereof for making polypeptides with many instances of nonstandard amino acids” (Yale University, priority 2014, dated 2019).
